Where “and” joins values, the source holds several entries; their conditions need not be identical. Equal values may be shown once. Entries after “also recorded” stand apart in the source; their conditions may differ.
Assays:
[1] = target: T1, norepinephrine (NE) transporter (Homo sapiens, UniProt P23975); assay: Norepinephrine transporter binding radioligand inhibition ([3H]-nisoxetine); conditions: concentration 5 μM
T1 construct: expressed in transfected cells; host or cells: CHO cells
Method: The norepinephrine (NE) transporter removes NE from the synaptic cleft. The NE transporter terminates the effects of […], enabling its reuse by the presynaptic neuron. The in vitro binding of the compounds of the invention to the NE transporter and the percent inhibition of control-specific binding ([^3H]-nisoxetine in human recombinant CHO cells) is determined following the method described in Pacholczyk et al., (Nature 1991, 350(6316): 350-4.

mice = assay: Novel object recognition test (acute); assay type: in vivo
Text: The novel object recognition task is used to evaluate cognition, particularly memory recognition, in rodent models of CNS disorders. This test is based on the spontaneous tendency of rodents to spend more time exploring a novel object than a familiar one. The choice to explore the novel object reflects the use of learning and memory recognition. The novel object recognition test provides a measure of activity in a novel environment allowing tests for emotional reactivity and also for novel object recognition, a cognitive domain that depends on hippocampal functional integrity. Animals were habituated to the presence of two identical objects (LEGO® pieces) during a single session of 5 minutes (training) and sniffing (exploration of an object was defined as pointing the nose to the object at a distance of <1 cm and/or touching it with the nose). Mice were injected with saline or with the compound to be tested and returned to their home cages. At 24 hours the animals were introduced in the same open field again with the same two items (familiarization), and again exploration in each of them for 5 minutes was registered. One hour later, the mice were retested in the open field for 3 minutes, but this time with one of the “familiar” objects replaced by a new one (test). To analyze cognitive performance, a discrimination index was calculated as the difference in time exploring the novel and familiar object, expressed as the ratio of the total time spent exploring both objects, which made it possible to adjust for any differences in total exploration time. This test is useful for assessing impaired cognitive ability in transgenic strains of mice and evaluating novel chemical entities for their effect on cognition (Zhang, R. J Alzheimers Dis 2012, 31(4): 801-12). […] Neuroplasticity 2007, 26496).

p-ERK = assay: Western blot of p-ERK in mouse brain after i.p. administration; assay type: in vivo, mice; conditions: 30 mg/kg i.p., hippocampus, 1 hour after administration; hydrochloride
Method: Acute biochemical neuronal changes in neurotrophin and synaptic plasticity signaling after the administration of the compounds to be tested may be studied by Western blot assessment of ERK, Akt, phospholipase C (PLC), Trk-B, […] and CAMK II phosphorylation assays in the hippocampus, striatum and cortex at 1 hour post-administration.
Two groups of animals were used: C57BL control mice and mice treated by i.p. administration of a dose of 30 mg/kg of the compound to be tested diluted in saline solution or control saline (n=6 per group).
Animals were sacrificed by cervical dislocation at the corresponding time and different brain regions were dissected (frontal cortex, striatum, hippocampus, cerebellum) after […] of having administered the compounds. […] The supernatants were collected and the protein concentration was measured using the Dc protein assay kit (Bio-Rad, Hercules, Calif., USA) read in a 96-well plate. […]
After primary antibody incubation, membranes were washed with TBS-T and incubated for 1 hour at room temperature with the appropriate horseradish peroxidase-conjugated secondary antibody (1:2000; Promega, Madison, Wis., USA), and the reaction was finally visualized with the Western Blotting Luminol Reagent (Santa Cruz Biotechnology, Santa Cruz, Calif., USA). Western blot replicates were scanned and quantified using a computer-assisted densitometric analysis.

CHO cells = assay: In vitro MTT toxicity screen; assay type: cell-based, Chinese hamster; conditions: 10 μM, compared to positive control group (10% DMSO)
Method: The toxicity of the compounds of the present invention at a concentration of 10 μM has been explored using the tetrazolium salt (MTT) method in CHO cells. The MTT method involving conversion of MTT to colored formazan by cells serves as an indirect measurement of cell growth/cell kill, as reported by several groups (Paimela, T. et al. Mol Vis 2012; 18: 1189-96; Hansen, M. B. et al. J Immunol Methods 1989, 119(2): 203-10).
In the MTT assay, cytotoxicity is correlated with the color of MTT and is measured with a spectrophotometer at the wavelength of 570 nm. Briefly, fresh MTT solution (10 mg/mL in 1×PBS) was added (1:20 volume of medium) and the cells were incubated for 1.5 hours. The cells were lysed and purple formazan was dissolved into the solution by overnight incubation with MTT lysis buffer (20% SDS, 50% N,N-dimethylformamide, 2% acetic acid, 25 mM HCl; the volume of medium+volume of MTT salt solution).

serotonin transporter = target: T2, serotonin transporter (Homo sapiens, UniProt P31645); assay: Serotonin transporter binding radioligand inhibition ([3H]-imipramine); conditions: concentration 5 μM
T2 construct: expressed in transfected cells; host or cells: CHO cells
T2 sequence (P31645 whole entry): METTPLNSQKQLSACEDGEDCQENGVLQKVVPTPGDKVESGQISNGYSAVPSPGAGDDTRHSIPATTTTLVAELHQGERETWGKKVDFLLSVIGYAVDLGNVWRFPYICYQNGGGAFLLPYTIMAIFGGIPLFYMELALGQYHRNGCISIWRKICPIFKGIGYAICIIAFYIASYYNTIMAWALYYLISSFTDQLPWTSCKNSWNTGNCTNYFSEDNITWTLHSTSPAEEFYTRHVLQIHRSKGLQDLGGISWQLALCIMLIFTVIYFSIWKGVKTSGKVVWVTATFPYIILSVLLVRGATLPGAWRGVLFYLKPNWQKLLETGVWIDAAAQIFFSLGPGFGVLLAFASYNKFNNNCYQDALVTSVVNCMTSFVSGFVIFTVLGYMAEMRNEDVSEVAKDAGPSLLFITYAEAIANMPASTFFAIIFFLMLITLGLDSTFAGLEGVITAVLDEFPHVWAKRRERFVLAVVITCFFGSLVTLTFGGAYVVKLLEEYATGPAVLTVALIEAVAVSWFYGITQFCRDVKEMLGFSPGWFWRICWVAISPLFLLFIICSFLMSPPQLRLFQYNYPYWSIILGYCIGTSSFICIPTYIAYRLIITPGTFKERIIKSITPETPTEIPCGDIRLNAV
Text: The serotonin transporter removes serotonin from the synaptic deft. The serotonin transporter terminates the effects of […], enabling its reuse by the presynaptic neuron.

uptake of norepinephrine = uptake of norepinephrine (Homo sapiens, UniProt P23975); assay: Uptake inhibition of norepinephrine, cellular assay; assay type: cell-based; conditions: read-out: Norepinephrine reuptake inhibition (IC50 μM)
uptake of norepinephrine, sequence (P23975 whole entry): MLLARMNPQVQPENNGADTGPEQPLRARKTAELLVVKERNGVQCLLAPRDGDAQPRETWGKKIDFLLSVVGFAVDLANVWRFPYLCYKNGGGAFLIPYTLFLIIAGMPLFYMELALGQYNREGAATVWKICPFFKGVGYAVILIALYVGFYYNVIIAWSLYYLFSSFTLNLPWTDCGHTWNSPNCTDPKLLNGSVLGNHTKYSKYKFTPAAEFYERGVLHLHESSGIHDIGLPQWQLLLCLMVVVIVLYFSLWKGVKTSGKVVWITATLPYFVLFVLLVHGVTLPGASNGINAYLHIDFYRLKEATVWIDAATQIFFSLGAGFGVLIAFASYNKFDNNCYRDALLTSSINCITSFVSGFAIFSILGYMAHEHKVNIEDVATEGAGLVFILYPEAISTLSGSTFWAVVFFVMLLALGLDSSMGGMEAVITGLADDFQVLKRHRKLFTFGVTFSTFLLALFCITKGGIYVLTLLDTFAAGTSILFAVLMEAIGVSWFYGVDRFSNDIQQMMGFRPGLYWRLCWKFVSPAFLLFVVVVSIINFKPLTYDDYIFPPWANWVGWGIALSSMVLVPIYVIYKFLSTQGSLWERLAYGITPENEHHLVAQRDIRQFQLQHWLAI
Method: The effect of the compounds of the present invention as inhibitors of the uptake of norepinephrine and serotonin in cellular assays at concentrations that range from […] to 1 nM is determined following the methods described in Galli, A. et al. J Exp Biol 1995, 198(Pt. 10): 2197-212 and Gu, H. et al. J Biol Chem. 1994, 269(10):7124-30.

[2] = acute administration, test session

T1 sequence (P23975 whole entry): as above

Structure (SMILES): CNCCC(Oc1ccc(CCO)cc1)c1ccccc1.Cl (single isomer, unassigned) [Example 2, 2-[4-[3-(Methylamino)-1-phenylpropoxy]phenyl]ethanol hydrochloride]
- inhibition at 5 µM [1]: 95%
- time familiar object (mice; [2]): 24.4%
- time new object (mice; [2]): 75.5%
- discrimination of the two objects vs saline group (mice; acute conditions): discriminated the two objects better
- p-ERK levels (ERK1/2 phosphorylation) (p-ERK): positive significant increase; also recorded: trend for an increase
- cell viability (MTT) (CHO cells): 100%
- inhibition at 5 µM (serotonin transporter): 82%
- IC50 (uptake of norepinephrine): 0.0864 µM and 0.086 µM

Source: patent US9980928B2, “Hydroxy aliphatic substituted phenyl aminoalkyl ether derivatives” (PROUS INSTITUTE FOR BIOMEDICAL RESEARCH, S.A., priority 2012, dated 2018)
